Several values for one entry are separate records, joined by “and”; a condition that tells them apart may be missing. Equal entries are not always repeated. Where two headings read alike, the source gives them in different places.
What was measured:
[1] = for Deaths: N = 10 per group
Description: All experiments were conducted on female athymic nude mice (Hsd:Athymic Nude-Foxn1nu) supplied by Harlan (Indianapolis, Ind.). Mice were received at four weeks of age, 12-15 grams in weight, and were acclimated for seven days prior to handling. The mice were housed in microisolator cages (Lab Products, Seaford, Del.) and maintained under specific pathogen-free conditions. All procedures were carried out under appropriate institutional guidelines for animal care.
Seven days following inoculation, tumors were measured using calipers and tumor weight was calculated using the animal study management software. […] Body weights were recorded when the mice were randomized and were taken twice weekly thereafter in conjunction with tumor measurements, on each of Days 1, 4, 8, 11, 15, 18, 22, 26, 30, 33, and 36.
The study was terminated when the vehicle control reached an endpoint of 1500 mg, on Day 36.

neutrophils = assay: Clinical trial, metastatic pancreatic cancer: absolute neutrophil count / neutropenia grade; format: in vivo, human; design: Neutrophil count: unit not given here; details: for Neutrophil Values / Neutrophil count: individual patients; for Neutrophil Values: ODSH adjunctive to gemcitabine and nab-paclitaxel; for Neutrophil count: randomized stage
From the text: Male and non-pregnant, non-lactating, female patients, aged 18 to 75, with histologically confirmed metastatic adenocarcinoma of the pancreas were enrolled in the trial. […] Treatment consisted of a series of 28-day cycles, wherein the last day of one cycle (e.g., day 28, cycle 1) was immediately followed by the first day of the next cycle (e.g., day 1, cycle 2). […] Nab-paclitaxel and gemcitabine therapy was given as described in the prescribing information for Abraxane® and Gemzar®. See also, Von Hoff et al., 2011, J. […] As a substantially non-anticoagulant heparinoid, ODSH can be administered at a dose that is greater than the fully anticoagulant dose of unfractionated heparin, without concern for anticoagulant effect, as shown in the Results below. An initial run-in period was conducted in which ten patients were treated with the gemcitabine, nab-paclitaxel, and ODSH regimen described above. After all ten patients had completed at least one 28-day cycle, the data were reviewed and an open-label randomized study initiated, with two arms (ODSH arm and Control arm). In the ODSH arm, the dosing regimen was the same as in the run-in period (gemcitabine, nab-paclitaxel, and ODSH). In the Control arm, patients were given the same gemcitabine and nab-paclitaxel regimen as in the run-in period, but without ODSH. […] Platelet counts, total white blood cell counts, and absolute neutrophil counts were performed. Grading of thrombocytopenia and/or neutropenia was performed according to the following standards: [table]

[2] = Table 13, first column group, headed Day 22
[3] = Table 13, second column group, headed Day 26
[4] = ten mice per group, BxPC-3 xenograft study
[5] = ODSH adjunct to gemcitabine/nab-paclitaxel

**Q.** With “substantially 2-O, 3-O desulfated heparin [ODSH]” as the substance, how does the “Day on which maximum weight loss was reached” value ([1]; BxPC-3 xenograft study) read?
**A.** Its value is 11 days.

**Q.** And the “Tolerability / toxicity of the treatment regimen (in words)” value ([1]; BxPC-3 xenograft study, doses of Table 1)?
**A.** Its value is “well-tolerated”.

**Q.** And the “Average Weight” value ([1]; Day 1)?
**A.** The value was 21.54 g.

**Q.** And the “% Weight Loss or Gain” value ([1]; Day 4)?
**A.** The value was −1.67%.

**Q.** What about the “Average Weight” value ([1]; Day 4) of the same substance?
**A.** Its value is 21.18 g.

**Q.** What about the “% Weight Loss or Gain” value ([1]; Day 8) of the same substance?
**A.** The value was −1.67%.

**Q.** And the “Average Weight” value ([1]; Day 8)?
**A.** Its value is 21.18 g.

**Q.** What about the “% Weight Loss or Gain” value ([1]; Day 11) of the same substance?
**A.** The value was −2.74%.

**Q.** And the “Average Weight” value ([1]; Day 11)?
**A.** Its value is 20.95 g.

**Q.** What about the “% Weight Loss or Gain” value ([1]; Day 15) of the same substance?
**A.** Its value is −2.14%.

**Q.** What about the “Average Weight” value ([1]; Day 15) of the same substance?
**A.** The value was 21.08 g.

**Q.** And the “% Weight Loss or Gain” value ([1]; Day 18)?
**A.** The value was −2.32%.

**Q.** What about the “Average Weight” value ([1]; Day 18) of the same substance?
**A.** Its value is 21.04 g.

**Q.** What about the “% Weight Loss or Gain” value ([1]; Day 22 (Table 12)) of the same substance?
**A.** Its value is 0.09%.

**Q.** What about the “Average Weight” value ([1]; Day 22 (Table 12)) of the same substance?
**A.** Its value is 21.56 g.

**Q.** What about the “% Weight Loss or Gain” value ([1]; Day 26 (Table 12)) of the same substance?
**A.** Its value is 2.79%.

**Q.** What about the “Average Weight” value ([1]; Day 26 (Table 12)) of the same substance?
**A.** The value was 22.14 g.

**Q.** And the “% Weight Loss or Gain” value [1, 2]?
**A.** The value was 4.60%.

**Q.** What about the “Average Weight” value [1, 2] of the same substance?
**A.** Its value is 22.53 g.

**Q.** What about the “% Weight Loss or Gain” value [1, 3] of the same substance?
**A.** Its value is 4.27%.

**Q.** And the “Average Weight” value [1, 3]?
**A.** Its value is 22.46 g.

**Q.** What about the Deaths ([1]; Total deaths on or before Day 26) of the same substance?
**A.** The Deaths was 0.

**Q.** And the Deaths ([1]; Total deaths on or before Day 36)?
**A.** Its Deaths is 0.

**Q.** What about the Maximum weight loss ([1]; body weight of mice, BxPC-3 xenograft study) of the same substance?
**A.** The Maximum weight loss was 2.7%.

**Q.** And the “Starting Weight” value ([1]; group mean body weight at start, dose, schedule and route per group as in table)?
**A.** The value was 21.54 g.

**Q.** And the “% Weight Loss or Gain” value ([1]; mouse, in vivo)?
**A.** The value was 4.92%.

**Q.** And the “Average Weight” value ([1]; mouse, in vivo)?
**A.** The value was 22.60 g.

**Q.** And the “Mice with bruising on the tails or abdomen (site of injection)” value [1, 4]?
**A.** The value was “All ten”.

**Q.** And the “Mice with swelling of the tail” value [1, 4]?
**A.** The value was “One of the ten”.

**Q.** What about the “Patients with increased or unchanged neutrophil counts on first day of second cycle vs first day of first cycle” value (neutrophils; [5]) of the same substance?
**A.** Its value is “Five out of 10”.

**Q.** What about the “Patients with normal neutrophil counts at the start of the fourth cycle” value (neutrophils; [5]) of the same substance?
**A.** Its value is 10 out of 10.

**Q.** And the “Patients with normal neutrophil counts at the start of the third cycle” value (neutrophils; [5])?
**A.** Its value is 8 out of 9.

**Q.** What about the “Patients with normal neutrophil counts on the first day of the second treatment cycle” value (neutrophils; [5]) of the same substance?
**A.** Its value is “Eight out of 10”.

**Q.** What about the “Mean and median absolute neutrophil counts on the first day of treatment cycles 2 and 3” value (neutrophils; all samples (FIG. 10B), ODSH adjunct to gemcitabine/nab-paclitaxel) of the same substance?
**A.** The value was “above 2,000”.

**Q.** And the “Patients with no more than mild neutropenia after two doses of treatment” value (neutrophils; day 15, first cycle, ODSH adjunct to gemcitabine/nab-paclitaxel)?
**A.** The value was 44%.

**Q.** And the “Patients with no more than mild neutropenia after five or eight doses of treatment” value (neutrophils; day 15 of cycle 2 or day 15 of cycle 3, ODSH adjunct to gemcitabine/nab-paclitaxel)?
**A.** Its value is 7 out of 10.

**Q.** What about the “Neutrophil Values” (neutrophils; Cycle 1 Day 1 (before treatment)) of the same substance?
**A.** Its value is 4.3 ×10^3/μl blood (2×) and 3.6 ×10^3/μl blood (2×) and 5.5 ×10^3/μl blood and 2.1 ×10^3/μl blood and 3.3 ×10^3/μl blood.

**Q.** And the “Neutrophil Values” (neutrophils; Cycle 1 Day 8)?
**A.** The value was 1.3 ×10^3/μl blood and 2.1 ×10^3/μl blood and 4.3 ×10^3/μl blood and 0.5 ×10^3/μl blood and 3.0 ×10^3/μl blood and 1.5 ×10^3/μl blood.

**Q.** What about the “Neutrophil Values” (neutrophils; Cycle 1 Day 15) of the same substance?
**A.** Its value is 0.7 ×10^3/μl blood (2×) and 1.6 ×10^3/μl blood and 3.6 ×10^3/μl blood and 3.5 ×10^3/μl blood and 1.0 ×10^3/μl blood.

**Q.** And the “Neutrophil Values” (neutrophils; Cycle 2 Day 1)?
**A.** The value was 7.3 ×10^3/μl blood and 1.6 ×10^3/μl blood and 4.6 ×10^3/μl blood and 13.0 ×10^3/μl blood and 2.1 ×10^3/μl blood and 6.0 ×10^3/μl blood and 3.6 ×10^3/μl blood.

**Q.** And the “Neutrophil Values” (neutrophils; Cycle 2 Day 8)?
**A.** Its value is 3.8 ×10^3/μl blood and 2.6 ×10^3/μl blood and 3.7 ×10^3/μl blood (2×) and 6.3 ×10^3/μl blood and 1.3 ×10^3/μl blood and 1.9 ×10^3/μl blood.

**Q.** And the “Neutrophil Values” (neutrophils; Cycle 2 Day 15)?
**A.** The value was 1.8 ×10^3/μl blood and 1.7 ×10^3/μl blood and 3.8 ×10^3/μl blood and 0.7 ×10^3/μl blood and 1.5 ×10^3/μl blood and 1.1 ×10^3/μl blood and 1.0 ×10^3/μl blood.

**Q.** What about the “Neutrophil Values” (neutrophils; Cycle 3 Day 1) of the same substance?
**A.** The value was 2.7 ×10^3/μl blood and 2.8 ×10^3/μl blood and 2.2 ×10^3/μl blood and 3.9 ×10^3/μl blood and 1.8 ×10^3/μl blood and 3.2 ×10^3/μl blood.

**Q.** What about the “Neutrophil Values” (neutrophils; Cycle 3 Day 8) of the same substance?
**A.** The value was 1.6 ×10^3/μl blood and 4.2 ×10^3/μl blood and 6.8 ×10^3/μl blood and 3.9 ×10^3/μl blood and 1.4 ×10^3/μl blood (2×).

**Q.** What about the “Neutrophil Values” (neutrophils; Cycle 3 Day 15) of the same substance?
**A.** Its value is 1.5 ×10^3/μl blood (2×) and 1.8 ×10^3/μl blood and 4.5 ×10^3/μl blood and 1.4 ×10^3/μl blood and 0.8 ×10^3/μl blood and 2.6 ×10^3/μl blood.

**Q.** What about the “Neutrophil Values” (neutrophils; Cycle 4 Day 1) of the same substance?
**A.** Its value is 2.2 ×10^3/μl blood and 5.2 ×10^3/μl blood and 5.7 ×10^3/μl blood and 5.9 ×10^3/μl blood and 3.5 ×10^3/μl blood and 3.2 ×10^3/μl blood and 2.7 ×10^3/μl blood.

**Q.** What about the “Neutrophil Values” (neutrophils; Cycle 4 Day 8) of the same substance?
**A.** Its value is 2.5 ×10^3/μl blood and 2.7 ×10^3/μl blood and 2.2 ×10^3/μl blood and 2.0 ×10^3/μl blood and 1.4 ×10^3/μl blood.

**Q.** And the “Neutrophil Values” (neutrophils; Cycle 4 Day 15)?
**A.** Its value is 4.6 ×10^3/μl blood and 2.4 ×10^3/μl blood and 3.4 ×10^3/μl blood and 0.7 ×10^3/μl blood and 1.7 ×10^3/μl blood.

**Q.** What about the “Neutrophil Values” (neutrophils; Cycle 5 Day 1) of the same substance?
**A.** Its value is 1.6 ×10^3/μl blood and 3.2 ×10^3/μl blood and 3.3 ×10^3/μl blood and 23.2 ×10^3/μl blood.

**Q.** What about the “Neutrophil Values” (neutrophils; Cycle 5 Day 8) of the same substance?
**A.** Its value is 2.1 ×10^3/μl blood and 3.4 ×10^3/μl blood and 1.6 ×10^3/μl blood and 4.1 ×10^3/μl blood.

**Q.** And the “Neutrophil Values” (neutrophils; Cycle 5 Day 15)?
**A.** The value was 0.8 ×10^3/μl blood and 3.9 ×10^3/μl blood and 1.1 ×10^3/μl blood.

**Q.** And the “Neutrophil Values” (neutrophils; Cycle 6 Day 1)?
**A.** The value was 13.5 ×10^3/μl blood and 2.3 ×10^3/μl blood.

**Q.** What about the “Neutrophil Values” (neutrophils; Cycle 6 Day 8) of the same substance?
**A.** The value was 1.3 ×10^3/μl blood and 1.2 ×10^3/μl blood.

**Q.** And the “Neutrophil Values” (neutrophils; Cycle 6 Day 15)?
**A.** Its value is 1.7 ×10^3/μl blood and 10.7 ×10^3/μl blood.

**Q.** What about the “Neutrophil Values” (neutrophils; Screen) of the same substance?
**A.** Its value is 5.6 ×10^3/μl blood and 5.9 ×10^3/μl blood and 4.0 ×10^3/μl blood (2×) and 5.3 ×10^3/μl blood and 4.3 ×10^3/μl blood and 9.3 ×10^3/μl blood.

**Q.** And the Neutrophil count (neutrophils; Cycle 1 Day 15)?
**A.** The Neutrophil count was 2.4 and 1.4 and 4.0 (2×) and 0.8 and 4.7 and 3.0 and 0.3.

**Q.** What about the Neutrophil count (neutrophils; Cycle 2 Day 15) of the same substance?
**A.** Its Neutrophil count is 1.8 (2×) and 1.6 and 0.8 and 3.7 (2×).

**Q.** And the Neutrophil count (neutrophils; Cycle 3 Day 15)?
**A.** Its Neutrophil count is 1.0 and 1.6 and 0.8 and 5.4.

**Q.** What about the Neutrophil count (neutrophils; Cycle 4 Day 15) of the same substance?
**A.** The Neutrophil count was 4.8 and 4.1.
